Measurements from patent publication US5886011A, “Piperidine derivatives as substance P antagonists” (Hisamitsu Pharmaceutical Co., Inc., priority 1995, dated 1999).
Counter-ions that a name gives are not always drawn. Like-named read-outs stand apart in the source and are kept apart here.

Legend:
[1] = molecular target: T1, Substance P receptor (guinea pig ileum longitudinal muscle) (Cavia porcellus, UniProt P30547); assay: Receptor-binding test ([125I]SP ligand, guinea pig ileum longitudinal muscle receptor samples); conditions: 10^-8 M compound; [125I]SP 50 pM, 22° C., 20 minutes
T1 construct: ileum was removed and the longitudinal muscle was stripped off; from tissue; host or cells: guinea pig ileum longitudinal muscle, washed membrane pellets
Description: To the longitudinal muscles, 20 times of the wet weight of the buffer solution (1) (50 mM tris-HCl buffer solution containing 2 mM MgCl2 and 0.1 mM phenyl methyl sulfonyl-fluoride, pH 7.4) was added. The mixture was homogenized under ice-cooling and centrifuged at 48,000×G for 15 minutes. After removing the supernatant, the pellets were re-suspended in the buffer solution (1) and centrifuged at 48,000×G for 15 minutes. The buffer solution (2) (50 mM tris.HCl buffer solution containing 10 mM ethylenediaminetetraacetic acid and 300 mM KCl, pH 7.4) was added to the pellets and suspended to be reacted under ice-cooling for 60 minutes. The resulted reaction materials were centrifuged at 48,000×G for 15 minutes. After suspending the pellets in the buffer solution (1) and distributing, the mixture were centrifuged at 48,000×G for 15 minutes. The pellets were stored at -80° C. until used as receptor samples.
Thus obtained receptor samples were suspended in 50 mM tris-HCl buffer solution to be used. As the buffer solution, binding buffer solution (tris.HCl buffer solution containing 0.02% bovine serum albumin, 40 μg/ml bacitracin, 4 μg/ml chymostatin, 4 μg/ml leupeptin and 3 mM MnCl2, pH7.4) was used.

[2] = system: Substance P (guinea pig ileum); assay: Bioassay test: Substance P-induced contraction of guinea pig ileum strips; conditions: 10^-7 M compound; contraction by 10^-8 M Substance P regarded as 100%
Description: B. Bioassay Test […] After exsanguinating guinea pigs (body weight: 500-600 g) deadly, ileum was removed and 2 cm of ileum strips were prepared. In a Tyrode's solution (10 ml, 37° C.) in which air is passed, containing 5.2 μM atropine and 4.1 μM indomethacin, the strips having 0.5 g resting tension was suspended, and contractions of muscle were recorded on a recording device (RTA-1200, manufactured by Nihon Kohden) via an isotonic transducer (TB-612T, manufactured by Nihon Kohden). Using three specimens per one group, effects of the subject drugs on the muscle contraction caused by 10^-8 M Substance P were determined.

Substance P = assay: Antagonism test on Substance P-induced airway edema; format: in vivo, guinea pig (hartley male); conditions: Cavia porcellus, po, read-out: Inhibition Rate (airway edema, dye transudated into trachea and main bronchi)
Description: C. Antagonism Test on Substance P-induced Airway Edema
20 mg/kg of Evans' Blue and 1 nm/kg Substance P containing 200 I.U./kg of heparin were administered intravenously to hartley male guinea pigs in order to induce airway edema. After ten minutes, the guinea pigs were exsanguinated deadly. The amounts of the dye transudated into trachea and main bronchi were determined. 1 mg/kg of the subject compounds were administered orally at thirty minutes before the induction. […] Further, for comparison, the following compounds A and B were used.

[3] = 1 mg/kg orally, thirty minutes before induction, compared to the control group

T1 sequence (P30547 whole entry): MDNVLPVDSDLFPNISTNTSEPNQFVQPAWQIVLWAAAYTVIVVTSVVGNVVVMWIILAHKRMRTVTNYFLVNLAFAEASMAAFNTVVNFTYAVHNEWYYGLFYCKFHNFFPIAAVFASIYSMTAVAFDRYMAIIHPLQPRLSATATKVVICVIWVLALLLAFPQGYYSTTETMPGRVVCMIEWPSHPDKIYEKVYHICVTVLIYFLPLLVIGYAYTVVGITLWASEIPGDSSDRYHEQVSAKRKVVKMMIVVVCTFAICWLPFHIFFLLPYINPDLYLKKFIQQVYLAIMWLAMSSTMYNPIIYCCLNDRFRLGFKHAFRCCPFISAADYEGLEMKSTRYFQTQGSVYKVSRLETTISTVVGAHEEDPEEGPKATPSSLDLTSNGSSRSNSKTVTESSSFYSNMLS

SMILES	inhibition at 0.01 µM [1]	Contriction Inhibition [2]	inhibition in vivo at 1 mg/kg (Substance P)	inhibition in vivo at 1 mg/kg (Substance P; [3])
CC1Cc2cccc(CN[C@H]3CCCN[C@H]3c3ccccc3)c2O1.Cl (single isomer, unassigned) [Example 3, hydrochloride]	96%	–	–	–
CC1Cc2cccc(CN[C@H]3CCCN[C@H]3c3ccccc3)c2O1.Cl (single isomer, unassigned) [Example 3]	–	93.2%	–	–
COc1ccc(OC(F)(F)F)cc1CN[C@H]1CCCN[C@H]1c1ccccc1 [Compound B, (2S,3S)-3-(2-methoxy-5-trifluoromethoxybenzyl)amino-2-phenylpiperidine hydrochloride, reference compound]	–	–	44%	–
CC1(C)Cc2cccc(CN[C@H]3CCCN[C@H]3c3ccccc3)c2O1.Cl [Example 2, (2S,3S)-3-[(2,2-dimethyl-2,3-dihydrobenzofuran-7-yl)methyl]amino-2-phenylpiperidine hydrochloride]	74.8%	47.0%	–	–
CC1(C)Cc2cc([N+](=O)[O-])cc(CN[C@H]3CCCN[C@H]3c3ccccc3)c2O1.Cl [Example 4, (2S,3S)-3-[(2,2-dimethyl-5-nitro-2,3-dihydrobenzofuran-7-yl)methyl]amino-2-phenylpiperidine hydrochloride]	89.7%	60.2%	–	–
CSc1cc(CN[C@H]2CCCN[C@H]2c2ccccc2)c2c(c1)CC(C)(C)O2.Cl [Example 5, (2S,3S)-3-[(2,2-dimethyl-5-methylthio-2,3-dihydrobenzofuran-7-yl)methyl]amino-2-phenylpiperidine hydrochloride]	91.8%	80.5%	–	–
CC1(C)Cc2cc(S(C)(=O)=O)cc(CN[C@H]3CCCN[C@H]3c3ccccc3)c2O1.Cl [Example 6, (2S,3S)-3-[(2,2-dimethyl-5-methylsulfonyl-2,3-dihydrobenzofuran-7-yl)methyl]amino-2-phenylpiperidine hydrochloride]	74.8%	50.9%	–	–
CN(C)S(=O)(=O)c1cc(CN[C@H]2CCCN[C@H]2c2ccccc2)c2c(c1)CC(C)(C)O2.Cl [Example 7, (2S,3S)-3-[(2,2-dimethyl-5-dimethylaminosulfonyl-2,3-dihydrobenzofuran-7-yl)methyl]amino-2-phenylpiperidine hydrochloride]	54%	15.0%	–	–
CC1Cc2cc(S(=O)(=O)N(C)C)cc(CN[C@H]3CCCN[C@H]3c3ccccc3)c2O1 (stereo partly drawn) [Example 8, (2S,3S)-3-[(5-dimethlaminosulfonyl-2-methyl-2,3-dihydrobenzofuran-7-yl)methyl]amino-2-phenylpiperidine hydrochloride]	92%	85.0%	–	–
Cl.c1ccc([C@@H]2NCCC[C@@H]2NCc2ccc3c(c2)OCO3)cc1 [Example 9, (2S,3S)-3-(3,4-methylenedioxybenzyl)amino-2-phenylpiperidine hydrochloride]	36.6%	5.5%	–	–
c1ccc([C@@H]2NCCC[C@@H]2NCc2cccc3c2OCCC3)cc1 [Example 10, (2S,3S)-3-[(3,4-dihydro-1,2-benzopyran-8-yl)methyl]amino-2-phenylpiperidinehydrochloride]	86.2%	61.8%	–	–
CC1(C)Cc2cc(Cl)cc(CN[C@H]3CCCN[C@H]3c3ccccc3)c2O1.Cl [Example 11, (2S,3S)-3-[(5-chloro-2,2-dimethyl-2,3-dihydrobenzofuran-7-yl)methyl]amino-2-phenylpiperidine hydrochloride]	85.8%	58.2%	–	–
COc1cc(CN[C@H]2CCCN[C@H]2c2ccccc2)c2c(c1)CC(C)(C)O2 [Example 12, (2S,3S)-3-[(2,2-dimethyl-5-methoxy-2,3-dihydrobenzofuran-7-yl)methyl]amino-2-phenylpiperldine hydrochloride]	82.2%	43.0%	–	–
Cl.c1ccc([C@@H]2NCCC[C@@H]2NCc2cccc3c2OCC3)cc1 [Example 13, (2S,3S)-3-[(2,3-dihydrobenzofuran-7-yl)methyl]amino-2-phenylpiperidine hydrochloride]	84.7%	47.4%	–	–
CC1Cc2cc(Cl)cc(CN[C@H]3CCCN[C@H]3c3ccccc3)c2O1.Cl (stereo partly drawn) [Example 14, (2S,3S)-3-[(5-chloro-2-methyl-2,3-dihydrobenzofuran-7-yl)methyl]amino-2-phenylpiperidine hydrochloride]	93.5%	92.3%	–	–
COc1cc(CN[C@H]2CCCN[C@H]2c2ccccc2)c2c(c1)CC(C)O2.Cl (stereo partly drawn) [Example 15, (2S,3S)-3-[(5-methoxy-2-methyl-2,3-dihydrobenzofuran-7-yl)methyl]amino-2-phenylpiperidine hydrochloride]	88.1%	75.2%	–	–
Cc1ccc(CN[C@H]2CCCN[C@H]2c2ccccc2)c2c1CC(C)(C)O2 [Example 16, (2S,3S)-3-[2,2,4-trimethyl-2,3-dihydrobenzofuran-7-yl)methyl]amino-2-phenylpiperidine hydrochloride]	82.5%	78.3%	–	–
Cc1cc(CN[C@H]2CCCN[C@H]2c2ccccc2)c2c(c1)CC(C)(C)O2.Cl [Example 17, (2S,3S)-3-[(2,2,5-trimethyl-2,3-dihydrobenzofuran-7-yl)methyl]amino-2-phenylpiperidine hydrochloride]	94.2%	94.6%	–	–
CC1(C)Cc2c(Cl)ccc(CN[C@H]3CCCN[C@H]3c3ccccc3)c2O1.Cl [Example 18, (2S,3S)-3-[(4-chloro-2,2-dimethyl-2,3-dihydrobenzofuran-7-yl)methyl]amino-2-phenylpiperidine hydrochloride]	89.9%	81.2%	–	–
Cl.c1ccc([C@@H]2NCCC[C@@H]2NCc2ccc3c(c2)OCCO3)cc1 [Example 19, (2S,3S)-3-(3,4-ethylenedioxybenzyl)amino-2-phenylpiperidine hydrochloride]	48.7%	22.1%	–	–
CC1Oc2c(CN[C@H]3CCCN[C@H]3c3ccccc3)cccc2C1C.Cl (stereo partly drawn) [Example 20, (2S,3S)-3-[(2,3-dimethyl-2,3-dihydrobenzofuran-7-yl)methyl]amino-2-phenylpiperidine hydrochloride]	65%	38.9%	–	–
Cc1ccc(CN[C@H]2CCCN[C@H]2c2ccccc2)c2c1C(C)C(C)O2.Cl (stereo partly drawn) [Example 21, (2S,3S)-3-[(2,3,4-trimethyl-2,3-dihydrobenzofuran-7-yl)methyl]amino-2-phenylpiperidine hydrochloride]	53.1%	13.4%	–	–
CC(C)(C)c1cc2c(c(CN[C@H]3CCCN[C@H]3c3ccccc3)c1)OCC2.Cl [Example 24, (2S,3S)-3-[(5-tert-butyl-2,3-dihydrobenzofuran-7-yl)methyl]amino-2-phenylpiperidine hydrochloride]	50.3%	69.5%	–	64%
Cl.c1ccc([C@@H]2NCCC[C@@H]2NCc2cc(C3CCCCC3)cc3c2OCC3)cc1 [Example 26, (2S,3S)-3-[(5-cyclohexyl-2,3-dihydrobenzofuran-7-yl)methyl]amino-2-phenylpiperidine hydrochloride]	56.4%	62.1%	–	61%
